Key:
B. subtilis 168 = experiment: Bliss interaction score (quartile over a dose matrix) (fitness difference); higher = more antagonism (negative = synergy)
In short: (§1)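 The Bliss score subtracts expected fitness, the product of the single-drug fitness values, from observed fitness. Fitness is plate-normalised OD595 at entry into stationary phase, relative to the robust no-drug mean and capped at 1, with single-drug fitness inferred from combinations. Summaries are quartiles over technical, biological and donor/recipient replicates.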

S. aureus DSM 20231 = experiment: as above
In short: as §1

S. aureus Newman = experiment: as above
In short: as §1

S. pneumoniae D39V [1] = experiment: as above
In short: as §1

S. pneumoniae D39V [2] = experiment: fitness (endpoint OD595 vs no drug) (fraction); higher = more growth
In short: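 Fitness is computed from the optical density at which cultures reach stationary phase, divided by the robust mean of no-drug control wells. Any value above 1 is set to 1. Cultures started at OD595 0.01 in 384-well plates with TSB, LB Lennox or CY at 37 °C, and OD595 was read every 30 min for 14 h against a first-reading background.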
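Throughout, for Bliss interaction score (quartile over a dose matrix): first quartile when negative (synergy) and third quartile when positive (antagonism).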

CC[C@H]1OC(=O)[C@H](C)[C@@H](O[C@H]2C[C@@](C)(OC)[C@@H](O)[C@H](C)O2)[C@H](C)[C@@H](O[C@@H]2O[C@H](C)C[C@H](N(C)C)[C@H]2O)[C@](C)(OC)C[C@@H](C)C(=O)[C@H](C)[C@@H](O)[C@]1(C)O [Clarithromycin] + COc1c(N2C[C@@H]3CCCN[C@@H]3C2)c(F)cc2c(=O)c(C(=O)O)cn(C3CC3)c12 [Moxifloxacin]
Settings | Bliss interaction score
B. subtilis 168 | 0.0403
S. aureus DSM 20231 | 0.0891
S. aureus Newman | 0.123
S. pneumoniae D39V [1] | 0.0742

fitness, S. pneumoniae D39V [2], one replicate
Settings | first compound 0.007812 µg/mL | first compound 0.01562 µg/mL | first compound 0.03125 µg/mL
partner 0.0037 µg/mL | 0.834 | 0.823 | 0.648
partner 0.0075 µg/mL | 0.85 | 0.82 | 0.6
partner 0.015 µg/mL | 0.818 | 0.765 | 0.572

fitness, S. pneumoniae D39V [2]
Settings | partner 0.005 µg/mL | partner 0.01 µg/mL | partner 0.02 µg/mL | partner 0.0312 µg/mL | partner 0.0625 µg/mL | partner 0.125 µg/mL
first compound 0.0625 µg/mL | 0.716 | 0.748 | 0.717 | – | – | –
first compound 0.07 µg/mL | – | – | – | 0.056 | 0.0339 | 0.0389
first compound 0.14 µg/mL | – | – | – | 0.0451 | 0.0439 | 0.0343
first compound 0.25 µg/mL | 0.217 | 0.235 | 0.238 | – | – | –
first compound 0.28 µg/mL | – | – | – | 0.0421 | 0.0312 | 0.0325

CC[C@H]1OC(=O)[C@H](C)[C@@H](O[C@H]2C[C@@](C)(OC)[C@@H](O)[C@H](C)O2)[C@H](C)[C@@H](O[C@@H]2O[C@H](C)C[C@H](N(C)C)[C@H]2O)[C@](C)(OC)C[C@@H](C)C(=O)[C@H](C)[C@@H](O)[C@]1(C)O [Clarithromycin] + COc1ccc(C[C@H](N)C(=O)N[C@H]2[C@@H](O)[C@H](n3cnc4c(N(C)C)ncnc43)O[C@@H]2CO)cc1 [Puromycin]
Settings | Bliss interaction score
B. subtilis 168 | 0.0559
S. aureus DSM 20231 | 0.0616
S. aureus Newman | -0.0662
S. pneumoniae D39V [1] | -0.0827

fitness, S. pneumoniae D39V [2], one replicate
Settings | first compound 0.007812 µg/mL | first compound 0.01562 µg/mL | first compound 0.03125 µg/mL | first compound 0.0625 µg/mL | first compound 0.125 µg/mL | first compound 0.25 µg/mL
partner 1 µg/mL | 0.947 | 0.867 | 0.676 | 0.419 | 0.138 | 0.112
partner 2 µg/mL | 0.839 | 0.805 | 0.612 | 0.504 | 0.192 | 0.0762
partner 4 µg/mL | 0.667 | 0.617 | 0.467 | 0.255 | 0.15 | 0.134

fitness, S. pneumoniae D39V [2]
Settings | first compound 0.07 µg/mL | first compound 0.14 µg/mL | first compound 0.28 µg/mL
partner 1 µg/mL | 0.131 | 0.0877 | 0.11
partner 2 µg/mL | 0.125 | 0.096 | 0.0799
partner 4 µg/mL | 0.12 | 0.122 | 0.0797

CC[C@H]1OC(=O)[C@H](C)[C@@H](O[C@H]2C[C@@](C)(OC)[C@@H](O)[C@H](C)O2)[C@H](C)[C@@H](O[C@@H]2O[C@H](C)C[C@H](N(C)C)[C@H]2O)[C@](C)(OC)C[C@@H](C)C(=O)[C@H](C)[C@@H](O)[C@]1(C)O [Clarithromycin] + COc1cccc2c1C(=O)c1c(O)c3c(c(O)c1C2=O)C[C@@](O)(C(=O)CO)C[C@@H]3O[C@H]1C[C@H](N)[C@H](O)[C@H](C)O1 [Doxorubicin]
Settings | Bliss interaction score
B. subtilis 168 | 0.0718
S. aureus DSM 20231 | 0.0858
S. aureus Newman | 0.105
S. pneumoniae D39V [1] | -0.0578

fitness, S. pneumoniae D39V [2], one replicate
Settings | first compound 0.007812 µg/mL | first compound 0.01562 µg/mL | first compound 0.03125 µg/mL
partner 0.25 µg/mL | 0.866 | 0.825 | 0.633
partner 0.5 µg/mL | 0.841 | 0.798 | 0.621
partner 1 µg/mL | 0.794 | 0.777 | 0.608

fitness, S. pneumoniae D39V [2]
Settings | first compound 0.0625 µg/mL | first compound 0.07 µg/mL | first compound 0.125 µg/mL | first compound 0.14 µg/mL | first compound 0.25 µg/mL | first compound 0.28 µg/mL
partner 0.25 µg/mL | 0.457 | 0.112 | 0.277 | 0.0456 | 0.077 | 0.0403
partner 0.5 µg/mL | 0.495 | 0.106 | 0.295 | 0.0366 | 0.107 | 0.0281
partner 1 µg/mL | 0.411 | 0.103 | 0.188 | 0.0523 | 0.0684 | 0.0955

CC[C@H]1OC(=O)[C@H](C)[C@@H](O[C@H]2C[C@@](C)(OC)[C@@H](O)[C@H](C)O2)[C@H](C)[C@@H](O[C@@H]2O[C@H](C)C[C@H](N(C)C)[C@H]2O)[C@](C)(OC)C[C@@H](C)C(=O)[C@H](C)[C@@H](O)[C@]1(C)O [Clarithromycin] + C[C@@H]1O[C@@H]1P(=O)(O)O [Fosfomycin]
Settings | Bliss interaction score
B. subtilis 168 | 0.0504
S. aureus DSM 20231 | -0.0843
S. aureus Newman | -0.114
S. pneumoniae D39V [1] | 0.0544

fitness, S. pneumoniae D39V [2], one replicate
Settings | first compound 0.007812 µg/mL | first compound 0.01562 µg/mL | first compound 0.03125 µg/mL
partner 1.25 µg/mL | 0.863 | 0.828 | 0.641
partner 2.5 µg/mL | 0.775 | 0.804 | 0.634
partner 5 µg/mL | 0.669 | 0.63 | 0.559

fitness, S. pneumoniae D39V [2]
Settings | first compound 0.0625 µg/mL | first compound 0.07 µg/mL | first compound 0.125 µg/mL | first compound 0.14 µg/mL | first compound 0.25 µg/mL | first compound 0.28 µg/mL
partner 1.25 µg/mL | 0.543 | 0.171 | 0.332 | 0.088 | 0.139 | 0.102
partner 2.5 µg/mL | 0.538 | 0.102 | 0.323 | 0.0599 | 0.13 | 0.0306
partner 5 µg/mL | 0.485 | 0.0461 | 0.288 | 0.057 | 0.132 | 0.0557

CC[C@H]1OC(=O)[C@H](C)[C@@H](O[C@H]2C[C@@](C)(OC)[C@@H](O)[C@H](C)O2)[C@H](C)[C@@H](O[C@@H]2O[C@H](C)C[C@H](N(C)C)[C@H]2O)[C@](C)(OC)C[C@@H](C)C(=O)[C@H](C)[C@@H](O)[C@]1(C)O [Clarithromycin] + C[C@@H](O)[C@H]1C(=O)N2C(C(=O)O)=C(SCCNC=N)C[C@H]12 [Imipenem]
Settings | Bliss interaction score
B. subtilis 168 | 0.0428
S. aureus DSM 20231 | 0.0295
S. aureus Newman | 0.0267
S. pneumoniae D39V [1] | -0.085

fitness, S. pneumoniae D39V [2], one replicate
Settings | first compound 0.007812 µg/mL | first compound 0.01562 µg/mL | first compound 0.03125 µg/mL
partner 0.005 µg/mL | 0.831 | 0.812 | 0.589
partner 0.01 µg/mL | 0.855 | 0.837 | 0.612
partner 0.02 µg/mL | 0.858 | 0.844 | 0.629

fitness, S. pneumoniae D39V [2]
Settings | first compound 0.0625 µg/mL | first compound 0.07 µg/mL | first compound 0.125 µg/mL | first compound 0.14 µg/mL | first compound 0.25 µg/mL | first compound 0.28 µg/mL
partner 0.005 µg/mL | – | 0.13 | – | 0.0799 | – | 0.0611
partner 0.0065 µg/mL | 0.541 | – | 0.154 | – | 0.0361 | –
partner 0.01 µg/mL | – | 0.146 | – | 0.0799 | – | 0.0532
partner 0.013 µg/mL | 0.661 | – | 0.277 | – | 0.0557 | –
partner 0.02 µg/mL | – | 0.17 | – | 0.109 | – | 0.0635
partner 0.026 µg/mL | 0.621 | – | 0.201 | – | 0.0493 | –

CC[C@H]1OC(=O)[C@H](C)[C@@H](O[C@H]2C[C@@](C)(OC)[C@@H](O)[C@H](C)O2)[C@H](C)[C@@H](O[C@@H]2O[C@H](C)C[C@H](N(C)C)[C@H]2O)[C@](C)(OC)C[C@@H](C)C(=O)[C@H](C)[C@@H](O)[C@]1(C)O [Clarithromycin] + C[C@H]1COc2c(N3CCN(C)CC3)c(F)cc3c(=O)c(C(=O)O)cn1c23 [Levofloxacin]
Settings | Bliss interaction score
B. subtilis 168 | 0.0707
S. aureus DSM 20231 | 0.0901
S. aureus Newman | 0.0872
S. pneumoniae D39V [1] | -0.0537

fitness, S. pneumoniae D39V [2], one replicate
Settings | first compound 0.007812 µg/mL | first compound 0.01562 µg/mL | first compound 0.03125 µg/mL
partner 0.2 µg/mL | 0.782 | 0.811 | 0.599
partner 0.4 µg/mL | 0.646 | 0.726 | 0.533
partner 0.8 µg/mL | 0.257 | 0.316 | 0.244

S. pneumoniae D39V [2]
Settings | fitness
first compound 0.0625 µg/mL, partner 0.1725 µg/mL | 0.701
first compound 0.0625 µg/mL, partner 0.345 µg/mL | 0.691
first compound 0.0625 µg/mL, partner 0.69 µg/mL | 0.371
first compound 0.07 µg/mL, partner 0.2 µg/mL | 0.139
first compound 0.07 µg/mL, partner 0.4 µg/mL | 0.134
first compound 0.07 µg/mL, partner 0.8 µg/mL | 0.0857
first compound 0.125 µg/mL, partner 0.1725 µg/mL | 0.486
first compound 0.125 µg/mL, partner 0.345 µg/mL | 0.463
first compound 0.125 µg/mL, partner 0.69 µg/mL | 0.349
first compound 0.14 µg/mL, partner 0.2 µg/mL | 0.0726
first compound 0.14 µg/mL, partner 0.4 µg/mL | 0.0532
first compound 0.14 µg/mL, partner 0.8 µg/mL | 0.063
first compound 0.25 µg/mL, partner 0.69 µg/mL | 0.242
first compound 0.28 µg/mL, partner 0.2 µg/mL | 0.0574
first compound 0.28 µg/mL, partner 0.4 µg/mL | 0.0463
first compound 0.28 µg/mL, partner 0.8 µg/mL | 0.0433

CC[C@H]1OC(=O)[C@H](C)[C@@H](O[C@H]2C[C@@](C)(OC)[C@@H](O)[C@H](C)O2)[C@H](C)[C@@H](O[C@@H]2O[C@H](C)C[C@H](N(C)C)[C@H]2O)[C@](C)(OC)C[C@@H](C)C(=O)[C@H](C)[C@@H](O)[C@]1(C)O [Clarithromycin] + C[C@H]1c2cccc(O)c2C(=O)C2=C(O)[C@]3(O)C(=O)C(C(N)=O)=C(O)[C@@H](N(C)C)[C@@H]3[C@@H](O)[C@@H]21 [Doxycycline]
Settings | Bliss interaction score
B. subtilis 168 | -0.324
S. aureus DSM 20231 | -0.161
S. aureus Newman | -0.116
S. pneumoniae D39V [1] | -0.107

fitness, S. pneumoniae D39V [2], one replicate
Settings | first compound 0.007812 µg/mL | first compound 0.01562 µg/mL | first compound 0.03125 µg/mL | first compound 0.0625 µg/mL | first compound 0.125 µg/mL | first compound 0.25 µg/mL
partner 0.003875 µg/mL | – | – | – | 0.674 | 0.375 | 0.0974
partner 0.00775 µg/mL | – | – | – | 0.736 | 0.317 | 0.115
partner 0.0155 µg/mL | 0.731 | 0.708 | 0.61 | – | – | –
partner 0.031 µg/mL | 0.681 | 0.669 | 0.609 | 0.464 | 0.143 | 0.101
partner 0.062 µg/mL | 0.587 | 0.482 | 0.266 | 0.267 | 0.129 | 0.0712

fitness, S. pneumoniae D39V [2]
Settings | first compound 0.0625 µg/mL | first compound 0.07 µg/mL | first compound 0.125 µg/mL | first compound 0.14 µg/mL | first compound 0.25 µg/mL | first compound 0.28 µg/mL
partner 0.0155 µg/mL | 0.574 | 0.0409 | 0.223 | 0.0521 | 0.143 | 0.0358
partner 0.031 µg/mL | – | 0.0283 | – | 0.0438 | – | 0.0338
partner 0.062 µg/mL | – | 0.0302 | – | 0.0541 | – | 0.0267
